pIC50: −log10 of the molar value.
Assays:
Class I HDAC (HDAC 1-3) = assay: In vitro HDAC inhibition assay; assay type: biochemical
[1] = test system: HbF and HbS protein in SCD erythroid progenitors; assay: Western blot for HbF and HbS protein in sickle erythroid progenitors; assay type: cell-based, human
[2] = test system: acH3 and RNA PolII at γ-globin promoter, β-globin promoter, LCR-HS2; assay type: cell-based, human; settings: for RNA PolII and acH3 chromatin enrichment in the LCR-HS2: Fig. 5E
HDAC6 = molecular target: T1, HDAC6 (Homo sapiens, UniProt Q9UBN7); assay: In vitro HDAC inhibition assay; assay type: biochemical; settings: 10-dose IC50 mode
T1 sequence (Q9UBN7 1-1215): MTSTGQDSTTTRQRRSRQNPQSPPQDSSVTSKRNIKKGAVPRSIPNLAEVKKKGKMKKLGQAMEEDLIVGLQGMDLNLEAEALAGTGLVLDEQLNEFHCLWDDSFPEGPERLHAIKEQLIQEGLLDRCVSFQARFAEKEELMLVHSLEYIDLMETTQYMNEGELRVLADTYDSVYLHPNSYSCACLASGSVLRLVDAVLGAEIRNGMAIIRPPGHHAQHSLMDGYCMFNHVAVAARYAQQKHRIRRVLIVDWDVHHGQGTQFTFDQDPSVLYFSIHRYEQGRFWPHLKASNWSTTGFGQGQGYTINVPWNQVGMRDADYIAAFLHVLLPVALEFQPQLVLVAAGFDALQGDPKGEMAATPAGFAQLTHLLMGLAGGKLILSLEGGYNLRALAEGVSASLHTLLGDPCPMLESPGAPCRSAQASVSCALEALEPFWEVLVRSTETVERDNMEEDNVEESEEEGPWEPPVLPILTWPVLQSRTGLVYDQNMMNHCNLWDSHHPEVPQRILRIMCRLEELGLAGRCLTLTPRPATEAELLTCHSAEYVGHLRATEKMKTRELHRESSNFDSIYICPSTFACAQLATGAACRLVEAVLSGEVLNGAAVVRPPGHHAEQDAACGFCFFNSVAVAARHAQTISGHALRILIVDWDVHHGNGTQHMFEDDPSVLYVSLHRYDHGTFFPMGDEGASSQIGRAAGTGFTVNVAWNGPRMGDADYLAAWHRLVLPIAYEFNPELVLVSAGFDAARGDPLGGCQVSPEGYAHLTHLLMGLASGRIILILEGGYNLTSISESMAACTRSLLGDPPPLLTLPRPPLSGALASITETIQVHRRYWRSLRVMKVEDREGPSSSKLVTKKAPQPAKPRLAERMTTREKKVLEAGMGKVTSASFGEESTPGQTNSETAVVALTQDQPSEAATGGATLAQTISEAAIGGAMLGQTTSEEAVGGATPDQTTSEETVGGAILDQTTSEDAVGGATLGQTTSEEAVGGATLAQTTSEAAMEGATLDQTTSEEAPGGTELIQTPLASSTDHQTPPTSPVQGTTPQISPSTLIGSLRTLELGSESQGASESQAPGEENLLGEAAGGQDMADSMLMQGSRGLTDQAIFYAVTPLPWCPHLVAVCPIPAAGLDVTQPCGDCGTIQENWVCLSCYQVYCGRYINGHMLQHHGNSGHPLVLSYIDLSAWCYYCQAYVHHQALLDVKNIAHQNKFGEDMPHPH

K562 cells = assay: Cell growth/proliferation of K562 cells; assay type: cell-based, human; settings: over the concentration range tested
[3] = test system: Class IIa and Class IV HDAC isoforms; assay: In vitro HDAC inhibition assay; assay type: biochemical; settings: 10-dose IC50 mode
[4] = test system: γ-globin and β-globin mRNA in SCD erythroid progenitors; assay: Globin mRNA in sickle erythroid progenitors; assay type: cell-based, human; settings: for increase in γ-globin mRNA: day 7 to day 12, n = 6 SCD subjects, vs vehicle
[5] = test system: acetylated histone H3 (acH3); assay: Western blot for nuclear acetylated histone H3 in sickle erythroid progenitors; assay type: cell-based, human
[6] = test system: HbF in SCD erythroid progenitors; assay: Flow cytometry for F-cells and HbF MFI in sickle erythroid progenitors; assay type: cell-based, human; settings: for mean F-cells: vehicle 5.8%
[7] = test system: SCD erythroid progenitors; assay: Erythroid maturation and growth of sickle erythroid progenitors; assay type: cell-based, human; settings: 5 days of treatment (day 12)
[8] = test system: γ-globin mRNA in K562 cells; assay: γ-globin mRNA induction in K562 cells; assay type: cell-based, human; settings: 48 h, CT108 3 μM, CT-101 5 μM, ST-20 20 μM, valproic acid 1 mM and 2 mM, vs control
HbF [9] = settings: SCD patients, intravenous; cited from earlier work
HDACs 1-9, and 11 = assay: In vitro HDAC inhibition assay, profile over all isoforms tested; settings: heat map Fig. 1A
[10] = nine SCD subjects, 10 mg per day, 3 days per week; ref NCT01245179; cited from earlier work
HbF [11] = settings: three patients with Hodgkin's lymphoma, 3 months of therapy; cited from earlier work

CCCCCCCC(=O)SCC/C=C/[C@@H]1CC(=O)NCc2nc(cs2)C2=N[C@@](C)(CS2)C(=O)N[C@@H](C(C)C)C(=O)N1 [CT-101]
pIC50 (Class I HDAC (HDAC 1-3); read-out: IC50 as Class I HDACi, lowest level over Class I isoforms): ≤ 8.40 | IC50 for HDAC 1-3 (Class I HDAC (HDAC 1-3); singlet 10-dose IC50 mode, 3-fold serial dilution, active free thiol form tested): nanomolar concentrations | HbF level increase by Western blot ([1]; 200 nM, vs untreated control progenitors, p < 0.01): up to 1.7 fold | HbS protein level ([1]; Western blot, Fig. 3C): not significantly changed | acH3 chromatin enrichment in the γ-globin promoter ([2]; CT-101 100 mM and 200 nM, 48 h): 3.8 fold | RNA PolII and acH3 chromatin enrichment in the LCR-HS2 [2]: increased | RNA PolII and acH3 chromatin enrichment in the β^s-globin proximal promoter ([2]; vs vehicle treated cells): not changed | inhibition of HDAC6 (HDAC6): Some inhibition | cell proliferation (K562 cells): did not inhibit cell proliferation | inhibition of Class IIa and Class IV isoforms [3]: little to no inhibition | increase in γ-globin mRNA ([4]; 100 nM): 3.9 fold | increase in γ-globin mRNA ([4]; 200 nM): 7 fold | β-globin transcription ([4]; sickle erythroid progenitors): did not alter | increase in acH3 level ([5]; 100 nM, n = 6): 1.8 fold | increase in acH3 level ([5]; 200 nM, n = 6): 2.0 fold | mean F-cells ([6]; 100 nM, p < 0.01): 8.1% | mean F-cells ([6]; 200 nM, p < 0.001): 7.4% | mean increase in the proportion of F-cells ([6]; vs DMSO vehicle controls, same subject): 30% | decrease in number of orthochromatic erythroid cells ([7]; 100 nM): 42% | decrease in number of orthochromatic erythroid cells ([7]; 200 nM): 56% | γ-globin mRNA / HbF expression induction [8]: 11 fold

NC(=O)NO [HU, hydroxyurea, reference compound]
HbF level increase by Western blot ([1]; HU 75 μM, vs untreated control): 1.3 fold

CCCC(=O)O.CCCC(=O)O.CCCC(=O)O.CCCC(=O)O.N=C(N)NCCC[C@H](N)C(=O)O.N=C(N)NCCC[C@H](N)C(=O)O.N=C(N)NCCC[C@H](N)C(=O)O [arginine butyrate]
enhancement of HbF levels (HbF [9]): 3 fold

O=C(/C=C/c1cccc(S(=O)(=O)Nc2ccccc2)c1)NO [belinostat]
HDAC isoform inhibition profile / selectivity (HDACs 1-9, and 11): inhibited most HDAC isoforms to some degree

Cc1[nH]c2ccccc2c1CCNCc1ccc(/C=C/C(=O)NO)cc1 [panobinostat]
tolerability [10]: without dose limiting or serious adverse effects | increase in HbF (HbF [11]): 2 fold | HDAC isoform inhibition profile / selectivity (HDACs 1-9, and 11): inhibited most HDAC isoforms to some degree

CCCC(=O)[O-].[Na+] [sodium butyrate, reference compound]
HbF level increase by Western blot ([1]; sodium butyrate 0.2 μM, vs untreated control): 1.4 fold | RNA PolII and acH3 chromatin enrichment in the LCR-HS2 [2]: increased | decrease of β-globin mRNA level ([4]; sodium butyrate 0.2 μM, day 7 to day 12): 80% | increase in acH3 level ([5]; sodium butyrate): 3 fold
